Measured values: patent publication US20100041089A1, “IMPROVED METHOD FOR DETECTING CHEMICAL […]” (priority 2006, published 2010)

Tested on: yeast genes (expressed mRNA)
Assay: DNA chip measurement of expressed mRNA of yeast genes after culture with a toxic chemical substance
Format: cell-based, Saccharomyces cerevisiae S288C
Procedure, shortened: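 Fluorescence ratio, treated over untreated, read by chip scanner; ratio of two or more counted significant. Cells: S288C yeast, YPD, 25° C, chemical added at log phase for 2 h at growth-inhibiting, sublethal level. Cy3/Cy5-labeled cDNA from oligo-dT-purified mRNA.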

Compound: N#Cc1c(Cl)c(Cl)c(Cl)c(C#N)c1Cl [(9), 2,4,5,6-Tetrachloro-1,3-benzenedicarbonitrile]
- The level of expressed mRNA in the presence of chemical substance/The level of expressed mRNA in the absence of chemical substance (yeast gene YAL034C, cultured two hours with substance): 3.0
- The level of expressed mRNA in the presence of chemical substance/The level of expressed mRNA in the absence of chemical substance (yeast gene YAL053W, cultured two hours with substance): 1.4
- The level of expressed mRNA in the presence of chemical substance/The level of expressed mRNA in the absence of chemical substance (yeast gene YAR027W, cultured two hours with substance): 2.3
- The level of expressed mRNA in the presence of chemical substance/The level of expressed mRNA in the absence of chemical substance (yeast gene YAR028W, cultured two hours with substance): 1.0
- The level of expressed mRNA in the presence of chemical substance/The level of expressed mRNA in the absence of chemical substance (yeast gene YBL048W, cultured two hours with substance): 7.2
- The level of expressed mRNA in the presence of chemical substance/The level of expressed mRNA in the absence of chemical substance (yeast gene YBL065W, cultured two hours with substance): 20.8
- The level of expressed mRNA in the presence of chemical substance/The level of expressed mRNA in the absence of chemical substance (yeast gene YBL075C (stress protein genes)): 60.3
- The level of expressed mRNA in the presence of chemical substance/The level of expressed mRNA in the absence of chemical substance (yeast gene YBL107C, cultured two hours with substance): 1.0
- The level of expressed mRNA in the presence of chemical substance/The level of expressed mRNA in the absence of chemical substance (yeast gene YBR008C (transport facilitation protein gene)): 54.6
- The level of expressed mRNA in the presence of chemical substance/The level of expressed mRNA in the absence of chemical substance (yeast gene YBR072W (stress protein genes)): 29.4
- The level of expressed mRNA in the presence of chemical substance/The level of expressed mRNA in the absence of chemical substance (yeast gene YBR096W, cultured two hours with the chemical substance): 1.2
- The level of expressed mRNA in the presence of chemical substance/The level of expressed mRNA in the absence of chemical substance (yeast gene YBR256C): 18.1
- The level of expressed mRNA in the presence of chemical substance/The level of expressed mRNA in the absence of chemical substance (yeast gene YCR082W, cultured two hours with substance): 4.3
- The level of expressed mRNA in the presence of chemical substance/The level of expressed mRNA in the absence of chemical substance (yeast gene YCR107W, cultured for two hours with substance): 196.6
- The level of expressed mRNA in the presence of chemical substance/The level of expressed mRNA in the absence of chemical substance (yeast gene YDL059C, DNA repair protein genes, cultured two hours with substance): 10.5
- The level of expressed mRNA in the presence of chemical substance/The level of expressed mRNA in the absence of chemical substance (yeast gene YDL072C, cultured two hours with substance): 1.1
- The level of expressed mRNA in the presence of chemical substance/The level of expressed mRNA in the absence of chemical substance (yeast gene YDL204W, cultured two hours with substance): 2.3
- The level of expressed mRNA in the presence of chemical substance/The level of expressed mRNA in the absence of chemical substance (yeast gene YDL218W, cultured two hours with substance): 72.5
- The level of expressed mRNA in the presence of chemical substance/The level of expressed mRNA in the absence of chemical substance (yeast gene YDL222C, cultured two hours with substance): 1.9
- The level of expressed mRNA in the presence of chemical substance/The level of expressed mRNA in the absence of chemical substance (yeast gene YDL234C, cultured two hours with substance): 4.6
- The level of expressed mRNA in the presence of chemical substance/The level of expressed mRNA in the absence of chemical substance (yeast gene YDL243C, cultured for two hours with substance): 64.2
- The level of expressed mRNA in the presence of chemical substance/The level of expressed mRNA in the absence of chemical substance (yeast gene YDR018C, cultured two hours with substance): 2.3
- The level of expressed mRNA in the presence of chemical substance/The level of expressed mRNA in the absence of chemical substance (yeast gene YDR031W, cultured two hours with substance): 1.1
- The level of expressed mRNA in the presence of chemical substance/The level of expressed mRNA in the absence of chemical substance (yeast gene YDR070C, cultured two hours with substance): 13.9
- The level of expressed mRNA in the presence of chemical substance/The level of expressed mRNA in the absence of chemical substance (yeast gene YDR194C, mitochondria-located protein gene, cultured two hours with substance): 2.8
- The level of expressed mRNA in the presence of chemical substance/The level of expressed mRNA in the absence of chemical substance (yeast gene YDR214W, cultured two hours with substance): 5.5
- The level of expressed mRNA in the presence of chemical substance/The level of expressed mRNA in the absence of chemical substance (yeast gene YDR253C): 14.8
- The level of expressed mRNA in the presence of chemical substance/The level of expressed mRNA in the absence of chemical substance (yeast gene YDR330W, cultured two hours with substance): 3.9
- The level of expressed mRNA in the presence of chemical substance/The level of expressed mRNA in the absence of chemical substance (yeast gene YDR340W, cultured two hours with substance): 1.4
- The level of expressed mRNA in the presence of chemical substance/The level of expressed mRNA in the absence of chemical substance (yeast gene YDR350C, cultured two hours with substance): 2.8
- The level of expressed mRNA in the presence of chemical substance/The level of expressed mRNA in the absence of chemical substance (yeast gene YDR374C, cultured two hours with substance): 10.4
- The level of expressed mRNA in the presence of chemical substance/The level of expressed mRNA in the absence of chemical substance (yeast gene YDR391C, cultured two hours with substance): 1.5
- The level of expressed mRNA in the presence of chemical substance/The level of expressed mRNA in the absence of chemical substance (yeast gene YDR411C, cultured two hours with substance): 0.7
- The level of expressed mRNA in the presence of chemical substance/The level of expressed mRNA in the absence of chemical substance (yeast gene YDR486C, cultured two hours with substance): 2.5
- The level of expressed mRNA in the presence of chemical substance/The level of expressed mRNA in the absence of chemical substance (yeast gene YDR494W, cultured two hours with substance): 1.2
- The level of expressed mRNA in the presence of chemical substance/The level of expressed mRNA in the absence of chemical substance (yeast gene YDR511W, cultured two hours with substance): 2.5
- The level of expressed mRNA in the presence of chemical substance/The level of expressed mRNA in the absence of chemical substance (yeast gene YDR513W): 4.6
- The level of expressed mRNA in the presence of chemical substance/The level of expressed mRNA in the absence of chemical substance (yeast gene YDR545W, cultured two hours with substance): 1.8
- The level of expressed mRNA in the presence of chemical substance/The level of expressed mRNA in the absence of chemical substance (yeast gene YEL001C, cultured two hours with substance): 2.0
- The level of expressed mRNA in the presence of chemical substance/The level of expressed mRNA in the absence of chemical substance (yeast gene YER004W, cultured two hours with substance): 4.5
- The level of expressed mRNA in the presence of chemical substance/The level of expressed mRNA in the absence of chemical substance (yeast gene YER035W, cultured two hours with substance): 1.2
- The level of expressed mRNA in the presence of chemical substance/The level of expressed mRNA in the absence of chemical substance (yeast gene YER038C, cultured two hours with substance): 0.7
- The level of expressed mRNA in the presence of chemical substance/The level of expressed mRNA in the absence of chemical substance (yeast gene YER079W, cultured two hours with substance): 5.3
- The level of expressed mRNA in the presence of chemical substance/The level of expressed mRNA in the absence of chemical substance (yeast gene YER096W, metabolism protein genes): 7.5
- The level of expressed mRNA in the presence of chemical substance/The level of expressed mRNA in the absence of chemical substance (yeast gene YER103W (stress protein genes)): 20.3
- The level of expressed mRNA in the presence of chemical substance/The level of expressed mRNA in the absence of chemical substance (yeast gene YER106W, cultured two hours with substance): 0.4
- The level of expressed mRNA in the presence of chemical substance/The level of expressed mRNA in the absence of chemical substance (yeast gene YER158C, cultured two hours with substance): 2.1
- The level of expressed mRNA in the presence of chemical substance/The level of expressed mRNA in the absence of chemical substance (yeast gene YER163C, cultured two hours with substance): 5.4
- The level of expressed mRNA in the presence of chemical substance/The level of expressed mRNA in the absence of chemical substance (yeast gene YER175C, cultured two hours with substance): 1.9
- The level of expressed mRNA in the presence of chemical substance/The level of expressed mRNA in the absence of chemical substance (yeast gene YFL006W, cultured two hours with substance): 3.2
